Where a name gives a salt, the structure may show the parent alone.
Tests used:
[1] = in vivo; design: species or system BALB/c mice
Procedure: The dosing solution was prepared in saline with a dosing volume of 10 mL/kg. Blood and tissue samples including liver, lung and spleen were collected at 0, 0.083, 0.25, 0.5, 0.75, 1, 2, 3, 4, 7, 24, 30, 48, 72 and 96 hr. […] Pharmacokinetic parameters (Cmax, Tmax, AUC and t1/2) were calculated with a non-compartmental approach using the Pharsight WinNonLin software (Ver. 6.4). The experimental procedures were approved by the Animal Care and Use Committee of Division of Veterinary Resources, NIH.

[2] = system: pp28-luciferase HCMV Towne; assay: microbe, parasite or virus in culture; type: cell-based, Human Cytomegalovirus; conditions: for normalized pp28-luciferase activity: emetine 75 nM, 72 hpi
Procedure: The pp28-luciferase HCMV Towne and a GCV-resistant pp28-luciferase were used. The recombinant viruses express luciferase under the control of the late CMV gene promoter, pp28. Luciferase expression is activated 48–72 hours post infection (hpi). The recombinant viruses provide a highly-sensitive reporter system which correlates with plaque reduction assay. […] Human herpes virus strains were: luciferase HSV1- KOS/Dlux/oriS [52] and clinical isolates of HSV2. The clinical isolates were provided by the clinical microbiology laboratory with no identifiers that can link to a specific subject.
Infection with HCMV or HSV was performed in HFFs, and infection with mouse CMV was performed in MEFs. For HCMV, cells were seeded in either a 96-well plate or 100 mm culture plates (Corning Costar, Sigma Aldrich) at 0.5 or 2 million cells /plate. Following 90 minute adsorption, media was removed and cells were washed with PBS. Media containing 4% FBS and compounds were added to each well. Infected treated HFFs were collected at 72 hpi and lysates were assayed for luciferase activity using a luciferase assay kit (Promega, Madison, WI) on GloMax-Multi+ Detection System (Promega). In second cycle assays, supernatants were collected from all conditions of the first cycle at 96 hpi and used for infection of fresh HFFs in 96-well plates. […] For HSV1-KOS/Dlux/oriS, a luciferase assay was performed at 24 hpi. […] For HCMV or MCMV, HFFs or MEFs were seeded at 0.5 or 2 million cells /plate in a 12-well plate and infected 24 hours later at 100 PFU/well. Following virus adsorption (60 min and 90 min for HSV and HCMV, respectively), virus was aspirated, and DMEM containing 4% fetal bovine serum (FBS) with (for HSV) or without (for HCMV/MCMV) 0.5% carboxymethyl-cellulose, were added with the compounds at indicated concentrations into triplicate wells. After incubation at 37°C for 10 days (for HCMV), 3 days for MCMV or 2 days (for HSV), the overlay was removed and plaques were counted after crystal violet staining.

[3] = 0.083 h after single oral 0.1 mg/kg, BALB/c mice
[4] = 0.25 h after single oral 0.1 mg/kg, BALB/c mice
[5] = 0.5 h after single oral 0.1 mg/kg, BALB/c mice
[6] = 1 h after single oral 0.1 mg/kg, BALB/c mice
[7] = 2 h after single oral 0.1 mg/kg, BALB/c mice
[8] = 3 h after single oral 0.1 mg/kg, BALB/c mice
[9] = 4 h after single oral 0.1 mg/kg, BALB/c mice
[10] = 7 h after single oral 0.1 mg/kg, BALB/c mice
[11] = 24 h after single oral 0.1 mg/kg, BALB/c mice
[12] = 30 h after single oral 0.1 mg/kg, BALB/c mice
[13] = 48 h after single oral 0.1 mg/kg, BALB/c mice
[14] = 72 h after single oral 0.1 mg/kg, BALB/c mice
[15] = 96 h after single oral 0.1 mg/kg, BALB/c mice

CC[C@H]1CN2CCc3cc(OC)c(OC)cc3[C@@H]2C[C@@H]1C[C@H]1NCCc2cc(OC)c(OC)cc21 [emetine, emetine dihydrochloride hydrate]
LIVER Conc. [1, 3]: 0.007 µmol/kg | LIVER Mean Conc. [1, 3]: 3.59 ng/g | LUNG Conc. [1, 3]: 0.002 µmol/kg | LUNG Mean Conc. [1, 3]: 1.07 ng/g | LIVER Conc. [1, 4]: 0.013 µmol/kg | LIVER Mean Conc. [1, 4]: 6.18 ng/g | LUNG Conc. [1, 4]: 0.003 µmol/kg | LUNG Mean Conc. [1, 4]: 1.49 ng/g | LIVER Conc. [1, 5]: 0.037 µmol/kg | LIVER Mean Conc. [1, 5]: 17.7 ng/g | LUNG Conc. [1, 5]: 0.006 µmol/kg | LUNG Mean Conc. [1, 5]: 2.90 ng/g | SPLEEN Conc. [1, 5]: 0.002 µmol/kg | SPLEEN Mean Conc. [1, 5]: 1.12 ng/g | LIVER Conc. [1, 6]: 0.117 µmol/kg | LIVER Mean Conc. [1, 6]: 56.5 ng/g | LUNG Conc. [1, 6]: 0.017 µmol/kg | LUNG Mean Conc. [1, 6]: 8.11 ng/g | SPLEEN Conc. [1, 6]: 0.012 µmol/kg | SPLEEN Mean Conc. [1, 6]: 5.60 ng/g | LIVER Conc. [1, 7]: 0.192 µmol/kg | LIVER Mean Conc. [1, 7]: 92.2 ng/g | LUNG Conc. [1, 7]: 0.020 µmol/kg | LUNG Mean Conc. [1, 7]: 9.70 ng/g | SPLEEN Conc. [1, 7]: 0.018 µmol/kg | SPLEEN Mean Conc. [1, 7]: 8.81 ng/g | LIVER Conc. [1, 8]: 0.316 µmol/kg | LIVER Mean Conc. [1, 8]: 152 ng/g | LUNG Conc. [1, 8]: 0.037 µmol/kg | LUNG Mean Conc. [1, 8]: 17.9 ng/g | SPLEEN Conc. [1, 8]: 0.032 µmol/kg | SPLEEN Mean Conc. [1, 8]: 15.3 ng/g | LIVER Conc. [1, 9]: 0.437 µmol/kg | LIVER Mean Conc. [1, 9]: 210 ng/g | LUNG Conc. [1, 9]: 0.071 µmol/kg | LUNG Mean Conc. [1, 9]: 34.2 ng/g | SPLEEN Conc. [1, 9]: 0.064 µmol/kg | SPLEEN Mean Conc. [1, 9]: 30.6 ng/g | LIVER Conc. [1, 10]: 0.527 µmol/kg | LIVER Mean Conc. [1, 10]: 253 ng/g | LUNG Conc. [1, 10]: 0.097 µmol/kg | LUNG Mean Conc. [1, 10]: 46.6 ng/g | SPLEEN Conc. [1, 10]: 0.093 µmol/kg | SPLEEN Mean Conc. [1, 10]: 44.9 ng/g | LIVER Conc. [1, 11]: 0.193 µmol/kg | LIVER Mean Conc. [1, 11]: 93.0 ng/g | LUNG Conc. [1, 11]: 0.138 µmol/kg | LUNG Mean Conc. [1, 11]: 66.1 ng/g | SPLEEN Conc. [1, 11]: 0.175 µmol/kg | SPLEEN Mean Conc. [1, 11]: 84.3 ng/g | LIVER Conc. [1, 12]: 0.174 µmol/kg | LIVER Mean Conc. [1, 12]: 83.6 ng/g | LUNG Conc. [1, 12]: 0.133 µmol/kg | LUNG Mean Conc. [1, 12]: 64.1 ng/g | SPLEEN Conc. [1, 12]: 0.193 µmol/kg | SPLEEN Mean Conc. [1, 12]: 92.5 ng/g | LIVER Conc. [1, 13]: 0.073 µmol/kg | LIVER Mean Conc. [1, 13]: 34.9 ng/g | LUNG Conc. [1, 13]: 0.078 µmol/kg | LUNG Mean Conc. [1, 13]: 37.4 ng/g | SPLEEN Conc. [1, 13]: 0.139 µmol/kg | SPLEEN Mean Conc. [1, 13]: 66.6 ng/g | LIVER Conc. [1, 14]: 0.044 µmol/kg | LIVER Mean Conc. [1, 14]: 21.2 ng/g | LUNG Conc. [1, 14]: 0.049 µmol/kg | LUNG Mean Conc. [1, 14]: 23.7 ng/g | SPLEEN Conc. [1, 14]: 0.094 µmol/kg | SPLEEN Mean Conc. [1, 14]: 45.2 ng/g | LIVER Conc. [1, 15]: 0.028 µmol/kg | LIVER Mean Conc. [1, 15]: 13.5 ng/g | LUNG Conc. [1, 15]: 0.030 µmol/kg | LUNG Mean Conc. [1, 15]: 14.3 ng/g | SPLEEN Conc. [1, 15]: 0.058 µmol/kg | SPLEEN Mean Conc. [1, 15]: 28.1 ng/g | half-life ([1]; male, mouse, in vivo, single oral 0.1 mg/kg, BALB/c mice, read-out: calculated half-life (converted)): 35 h | plasma concentrations ([1]; single oral 0.1 mg/kg, male BALB/c mice, UPLC-MS/MS): mostly below the level limit of quantification | EC50 ([2]; Human betaherpesvirus 5, read-out: EC50 against pp28-luciferase Towne): 40 ± 1.72 nM | normalized pp28-luciferase activity ([2]; increased cell density): significant reduction | normalized pp28-luciferase activity ([2]; low cell density): no reduction | Hill slope of the concentration-response curve ([2]; pp28-luciferase Towne, HFFs): 3.1
